Data reported in ChEMBL document CHEMBL1155915, “Anticonvulsant activity of some xanthone derivatives” (Bioorg Med Chem, 2008).
Calls of active or inactive are those of the source. No cut-off for these calls is given here.

Experiments:
Mus musculus [1] = species on record: Mus musculus; assay: Protective index, ratio of TD50 for mouse by rotarod test to ED50 for mouse by MES test; format: functional
Mus musculus [2] = assay: Anticonvulsant activity against maximal electroshock-induced seizures in ip dosed mouse; format: functional
Mus musculus [3] = assay: Anticonvulsant activity against maximal electroshock-induced seizures in mouse at 300 mg/kg, ip after 0.5 hrs; format: functional, organism-based; parameters: dose 300 mg/kg
Mus musculus [4] = assay: Anticonvulsant activity against maximal electroshock-induced seizures in mouse at 30 mg/kg, ip after 0.5 hrs; format: functional, organism-based; parameters: dose 30 mg/kg
Mus musculus [5] = assay: Anticonvulsant activity against maximal electroshock-induced seizures in mouse at 300 mg/kg, ip after 4 hrs; format: functional, organism-based; parameters: dose 300 mg/kg
Mus musculus [6] = assay: Anticonvulsant activity against scMet-induced seizures in mouse at 30 mg/kg, ip after 4 hrs; format: functional, organism-based; parameters: dose 30 mg/kg
Mus musculus [7] = assay: Neurotoxicity in mouse at 10 mg/kg, ip after 0.5 hrs by rotarod test; format: toxicity, organism-based; parameters: dose 10 mg/kg, route intraperitoneal; details: in vivo
Mus musculus [8] = assay: Anticonvulsant activity against scMet-induced seizures in mouse at 30 mg/kg, ip after 0.5 hrs; format: functional, organism-based; parameters: dose 30 mg/kg
Mus musculus [9] = assay: Neurotoxicity in mouse at 3 mg/kg, ip after 0.5 hrs by rotarod test; format: toxicity, organism-based; parameters: dose 3 mg/kg, route intraperitoneal; details: in vivo
Mus musculus [10] = assay: Anticonvulsant activity against maximal electroshock-induced seizures in mouse at 30 mg/kg, ip after 4 hrs; format: functional, organism-based; parameters: dose 30 mg/kg
Rattus norvegicus [11] = assay: Neurotoxicity in rat at 30 mg/kg, po after 4 hrs by rotarod test; format: toxicity, organism-based; parameters: dose 30 mg/kg, route oral; details: in vivo
Rattus norvegicus [12] = assay: Neurotoxicity in rat at 30 mg/kg, po after 0.25 hrs by rotarod test; format: toxicity, organism-based; parameters: dose 30 mg/kg, route oral; details: in vivo
Mus musculus [13] = assay: Anticonvulsant activity against maximal electroshock-induced seizures in mouse at 100 mg/kg, ip after 4 hrs; format: functional, organism-based; parameters: dose 100 mg/kg
Mus musculus [14] = assay: Anticonvulsant activity against maximal electroshock-induced seizures in mouse at 100 mg/kg, ip after 0.5 hrs; format: functional, organism-based; parameters: dose 100 mg/kg
Mus musculus [15] = assay: Neurotoxicity in mouse at 30 mg/kg, ip after 4 hrs by rotarod test; format: toxicity, organism-based; parameters: dose 30 mg/kg, route intraperitoneal; details: in vivo
Mus musculus [16] = assay: Anticonvulsant activity against scMet-induced seizures in mouse at 300 mg/kg, ip after 4 hrs; format: functional, organism-based; parameters: dose 300 mg/kg
Mus musculus [17] = assay: Neurotoxicity in mouse at 300 mg/kg, ip after 0.5 hrs by rotarod test; format: toxicity, organism-based; parameters: dose 300 mg/kg, route intraperitoneal; details: in vivo
Mus musculus [18] = assay: Anticonvulsant activity against maximal electroshock-induced seizures in mouse at 3 mg/kg, ip after 0.5 hrs; format: functional, organism-based; parameters: dose 3 mg/kg
Mus musculus [19] = assay: Neurotoxicity in mouse at 300 mg/kg, ip after 4 hrs by rotarod test; format: toxicity, organism-based; parameters: dose 300 mg/kg, route intraperitoneal; details: in vivo
Mus musculus [20] = assay: Anticonvulsant activity against maximal electroshock-induced seizures in mouse at 10 mg/kg, ip after 0.5 hrs; format: functional, organism-based; parameters: dose 10 mg/kg
Rattus norvegicus [21] = assay: Neurotoxicity in rat at 30 mg/kg, po after 0.5 hrs by rotarod test; format: toxicity, organism-based; parameters: dose 30 mg/kg, route oral; details: in vivo
Rattus norvegicus [22] = assay: Neurotoxicity in rat at 30 mg/kg, po after 2 hrs by rotarod test; format: toxicity, organism-based; parameters: dose 30 mg/kg, route oral; details: in vivo
Mus musculus [23] = assay: Anticonvulsant activity against scMet-induced seizures in mouse at 100 mg/kg, ip after 4 hrs; format: functional, organism-based; parameters: dose 100 mg/kg
Mus musculus [24] = assay: Anticonvulsant activity against scMet-induced seizures in mouse at 100 mg/kg, ip after 0.5 hrs; format: functional, organism-based; parameters: dose 100 mg/kg
Mus musculus [25] = assay: Anticonvulsant activity against scMet-induced seizures in mouse at 300 mg/kg, ip after 0.5 hrs; format: functional, organism-based; parameters: dose 300 mg/kg
Rattus norvegicus [26] = assay: Neurotoxicity in rat at 30 mg/kg, po after 1 hr by rotarod test; format: toxicity, organism-based; parameters: dose 30 mg/kg, route oral; details: in vivo
Mus musculus [27] = assay: Anticonvulsant activity against scMet-induced seizures in ip dosed mouse; format: functional
Mus musculus [28] = species on record: Mus musculus; assay: Protective index, ratio of TD50 for mouse by rotarod test to ED50 for mouse by scMET test; format: functional
[29] = Displacement of [3H]nitrendipine from voltage-dependent calcium channel in rat brain cortex by scintillation counting; format: tissue-based
Rattus norvegicus [30] = assay: Anticonvulsant activity against maximal electroshock-induced seizures in rat at 30 mg/kg, po after 0.5 hrs; format: functional, organism-based; parameters: dose 30 mg/kg
Rattus norvegicus [31] = assay: Anticonvulsant activity against maximal electroshock-induced seizures in rat at 30 mg/kg, po after 1 hr; format: functional, organism-based; parameters: dose 30 mg/kg
[32] = Neurotoxicity in ip dosed mouse by rotarod test; format: toxicity, organism-based; details: in vivo
Rattus norvegicus [33] = assay: Anticonvulsant activity against maximal electroshock-induced seizures in rat at 30 mg/kg, po after 0.25 hrs; format: functional, organism-based; parameters: dose 30 mg/kg
Mus musculus [34] = assay: Neurotoxicity in mouse at 30 mg/kg, ip after 0.5 hrs by rotarod test; format: toxicity, organism-based; parameters: dose 30 mg/kg, route intraperitoneal; details: in vivo
Mus musculus [35] = assay: Neurotoxicity in mouse at 100 mg/kg, ip after 4 hrs by rotarod test; format: toxicity, organism-based; parameters: dose 100 mg/kg, route intraperitoneal; details: in vivo
Mus musculus [36] = assay: Neurotoxicity in mouse at 100 mg/kg, ip after 1 hr by rotarod test; format: toxicity, organism-based; parameters: dose 100 mg/kg, route intraperitoneal; details: in vivo
Rattus norvegicus [37] = assay: Anticonvulsant activity against maximal electroshock-induced seizures in rat at 30 mg/kg, po after 2 hrs; format: functional, organism-based; parameters: dose 30 mg/kg
Mus musculus [38] = assay: Neurotoxicity in mouse at 30 mg/kg, ip after 1 hr by rotarod test; format: toxicity, organism-based; parameters: dose 30 mg/kg, route intraperitoneal; details: in vivo
Rattus norvegicus [39] = assay: Anticonvulsant activity against maximal electroshock-induced seizures in rat at 30 mg/kg, po after 4 hrs; format: functional, organism-based; parameters: dose 30 mg/kg

SMILES | PI (Mus musculus [1]) | ED50 (Mus musculus [2]) [mg/kg] | Activity (Mus musculus [3]) | Activity (Mus musculus [4]) | Activity (Mus musculus [5]) | Activity (Mus musculus [6]) | Activity (Mus musculus [8]) | Activity (Mus musculus [10]) | Neurotoxicity (Rattus norvegicus [11]) | Neurotoxicity (Rattus norvegicus [12]) | Activity (Mus musculus [13]) | Neurotoxicity (Mus musculus [15]) | Activity (Mus musculus [16]) | Neurotoxicity (Mus musculus [19]) | Neurotoxicity (Rattus norvegicus [21]) | Neurotoxicity (Rattus norvegicus [22]) | Activity (Mus musculus [23]) | Activity (Mus musculus [24]) | Activity (Mus musculus [25]) | Neurotoxicity (Rattus norvegicus [26]) | other results
CC[C@@H](CO)NCCOc1c(C)cccc1C | 4.55 | 7.57 |  |  |  |  |  |  |  |  |  |  |  |  |  |  |  |  |  |  | 
CCC(O)CNCc1ccc2oc3cc(Cl)ccc3c(=O)c2c1 (racemic) |  |  | Active | Active | Active | inactive | inactive | inactive | Not Active | Not Active | Active | Not Active | inactive | Neurotoxic | Not Active | Not Active | inactive | inactive | inactive | Not Active | Neurotoxicity (Mus musculus [7]): Not Active; Neurotoxicity (Mus musculus [9]): Not Active; Activity (Mus musculus [14]): Active; Neurotoxicity (Mus musculus [17]): Neurotoxic; Activity (Mus musculus [18]): inactive; Activity (Mus musculus [20]): inactive
NC(=O)N1c2ccccc2C=Cc2ccccc21 [CARBAMAZEPINE] |  |  |  |  |  |  |  |  |  |  |  |  |  |  |  |  |  |  |  |  | ED50 (Mus musculus [27]): > 50 mg/kg; PI (Mus musculus [28]): <1; EC50 [29]: 1200 nM
COC(=O)C1=C(C)NC(C)=C(C(=O)OC)C1c1ccccc1[N+](=O)[O-] [NIFEDIPINE] |  |  |  |  |  |  |  |  |  |  |  |  |  |  |  |  |  |  |  |  | EC50 [29]: 1 nM
C[C@H](CO)NCc1ccc2oc3cc(Cl)ccc3c(=O)c2c1 | 6.23 | 77.4 | Active | inactive | Active | inactive | inactive | inactive | Not Active | Not Active | inactive | Not Active | inactive | Not Active | Not Active | Not Active | inactive | inactive | inactive | Not Active | ED50 (Mus musculus [27]): > 500 mg/kg; Activity (Rattus norvegicus [30]): inactive; Activity (Rattus norvegicus [31]): inactive; PI (Mus musculus [28]): <0.96; TD50 [32]: 483 mg/kg; Activity (Rattus norvegicus [33]): inactive; Neurotoxicity (Mus musculus [34]): Not Active; Neurotoxicity (Mus musculus [35]): Not Active
Cl.O=c1c2ccc(Cl)cc2oc2ccc(CNCCCO)cc12 |  |  | Active | inactive | inactive | inactive | inactive | inactive | Not Active | Not Active | inactive | Not Active | inactive | Neurotoxic | Not Active | Not Active | inactive | inactive | inactive | Not Active | Neurotoxicity (Mus musculus [36]): Not Active; Activity (Rattus norvegicus [37]): inactive; Activity (Rattus norvegicus [30]): inactive; Activity (Mus musculus [14]): inactive; Activity (Rattus norvegicus [31]): inactive; Neurotoxicity (Mus musculus [38]): Not Active; Neurotoxicity (Mus musculus [17]): Neurotoxic; Activity (Rattus norvegicus [39]): inactive; Activity (Rattus norvegicus [33]): inactive; Neurotoxicity (Mus musculus [34]): Not Active; Neurotoxicity (Mus musculus [35]): Not Active
